Species on record: Rattus norvegicus
Test: Open TG-GATES - Regimen: Single
Assay type: toxicity, organism-based, Sprague-Dawley
Design: regimen Single, gender Male, age 6 weeks
Conditions: in vivo, po, 50 mg/kg, route gavage, dose level Middle; for APTT / Bas / Eos / Fbg / Hb / Ht / Lym / MCH / MCHC / MCV / Mono / Neu / PT / Plat / RBC / Ret / WBC: tissue Blood; for KIDNEY_L / KIDNEY_R / KIDNEY_TOTAL: tissue Kidney; for LIVER: tissue Liver; for A/G / ALP / ALT / AST / BUN / CRE / Ca / Cl / DBIL / GLC / IP / K / LDH / Na / PL / RALB / TBIL / TC / TG / TP / gamma-GTP: tissue Plasma

## CC1=C(CC(=O)O)c2cc(F)ccc2/C1=C\c1ccc([S+](C)[O-])cc1 (configuration not stated)
3 h
  TERMINAL_BW: 204.9 g
  APTT: 16.8 s
  Bas: 0%
  Eos: 1%
  Fbg: 266 mg/dL
  Hb: 13.2 g/dL
  Ht: 40.3%
  Lym: 77.6%
  MCH: 21.2 pg
  MCHC: 32.7%
  MCV: 65 fL
  Mono: 2.6%
  Neu: 18.4%
  PT: 14.1 s
  Plat: 130.3 x10_4/uL
  RBC: 620.8 x10_4/ul
  Ret: 8.7%
  WBC: 77.3 x10_2/uL
  KIDNEY_L: 0.9 g
  KIDNEY_R: 0.9 g
  KIDNEY_TOTAL: 1.8 g
  LIVER: 9 g
  A/G: 0.9
  ALP: 1442.8 IU/L
  ALT: 43.4 IU/L
  AST: 76.2 IU/L
  BUN: 11.4 mg/dL
  CRE: 0.2 mg/dL
  Ca: 11 mg/dL
  Cl: 104.8 meq/L
  DBIL: 0.01 mg/dL
  GLC: 166.8 mg/dL
  IP: 8.6 mg/dL
  K: 3.9 meq/L
  LDH: 81.4 IU/L
  Na: 141.6 meq/L
  PL: 140.4 mg/dL
  RALB: 2.5 g/dL
  TBIL: 0.046 mg/dL
  TC: 74.6 mg/dL
  TG: 58.8 mg/dL
  TP: 5.3 g/dL
  gamma-GTP: 1.2 IU/L
6 h
  TERMINAL_BW: 201.8 g
  APTT: 15.7 s
  Bas: 0%
  Eos: 0.8%
  Fbg: 289.4 mg/dL
  Hb: 13.7 g/dL
  Ht: 42.1%
  Lym: 78.4%
  MCH: 21.1 pg
  MCHC: 32.6%
  MCV: 64.6 fL
  Mono: 3%
  Neu: 17.2%
  PT: 13.8 s
  Plat: 113.6 x10_4/uL
  RBC: 652.4 x10_4/ul
  Ret: 7.8%
  WBC: 73.5 x10_2/uL
  KIDNEY_L: 0.9 g
  KIDNEY_R: 0.9 g
  KIDNEY_TOTAL: 1.9 g
  LIVER: 8.4 g
  A/G: 0.9
  ALP: 1437 IU/L
  ALT: 44.4 IU/L
  AST: 69.8 IU/L
  BUN: 10.8 mg/dL
  CRE: 0.2 mg/dL
  Ca: 11 mg/dL
  Cl: 106 meq/L
  DBIL: 0.01 mg/dL
  GLC: 172.4 mg/dL
  IP: 9.4 mg/dL
  K: 4.3 meq/L
  LDH: 69.6 IU/L
  Na: 141 meq/L
  PL: 135.6 mg/dL
  RALB: 2.6 g/dL
  TBIL: 0.044 mg/dL
  TC: 70.8 mg/dL
  TG: 47.8 mg/dL
  TP: 5.3 g/dL
  gamma-GTP: 1 IU/L
9 h
  TERMINAL_BW: 202.2 g
  APTT: 16.8 s
  Bas: 0%
  Eos: 0.8%
  Fbg: 291.6 mg/dL
  Hb: 13.5 g/dL
  Ht: 41.5%
  Lym: 79.4%
  MCH: 20.6 pg
  MCHC: 32.6%
  MCV: 63.2 fL
  Mono: 2.6%
  Neu: 16.8%
  PT: 14 s
  Plat: 117.4 x10_4/uL
  RBC: 656.4 x10_4/ul
  Ret: 7.8%
  WBC: 67.5 x10_2/uL
  KIDNEY_L: 0.9 g
  KIDNEY_R: 0.9 g
  KIDNEY_TOTAL: 1.9 g
  LIVER: 8.2 g
  A/G: 0.9
  ALP: 1341.4 IU/L
  ALT: 42.2 IU/L
  AST: 67.8 IU/L
  BUN: 11.2 mg/dL
  CRE: 0.2 mg/dL
  Ca: 10.8 mg/dL
  Cl: 106.6 meq/L
  DBIL: 0.01 mg/dL
  GLC: 177.6 mg/dL
  IP: 9.9 mg/dL
  K: 4.4 meq/L
  LDH: 65.6 IU/L
  Na: 142 meq/L
  PL: 135 mg/dL
  RALB: 2.6 g/dL
  TBIL: 0.04 mg/dL
  TC: 71.6 mg/dL
  TG: 38 mg/dL
  TP: 5.3 g/dL
  gamma-GTP: 1.2 IU/L
24 h
  TERMINAL_BW: 210.3 g
  APTT: 16.1 s
  Bas: 0%
  Eos: 0.6%
  Fbg: 354.6 mg/dL
  Hb: 13.7 g/dL
  Ht: 42.2%
  Lym: 62%
  MCH: 21 pg
  MCHC: 32.5%
  MCV: 64.8 fL
  Mono: 3.2%
  Neu: 33.8%
  PT: 13.5 s
  Plat: 133.9 x10_4/uL
  RBC: 653.2 x10_4/ul
  Ret: 7.9%
  WBC: 115.7 x10_2/uL
  KIDNEY_L: 0.9 g
  KIDNEY_R: 0.9 g
  KIDNEY_TOTAL: 1.9 g
  LIVER: 9.7 g
  A/G: 1
  ALP: 1280.2 IU/L
  ALT: 43 IU/L
  AST: 67.8 IU/L
  BUN: 14.6 mg/dL
  CRE: 0.2 mg/dL
  Ca: 11 mg/dL
  Cl: 103.4 meq/L
  DBIL: 0.01 mg/dL
  GLC: 189.6 mg/dL
  IP: 7.9 mg/dL
  K: 4 meq/L
  LDH: 86.2 IU/L
  Na: 141 meq/L
  PL: 141.8 mg/dL
  RALB: 2.5 g/dL
  TBIL: 0.024 mg/dL
  TC: 78.4 mg/dL
  TG: 88.4 mg/dL
  TP: 5.2 g/dL
  gamma-GTP: 1 IU/L
